One series has as its system HEPG2/C3A cells. In words: Metabolic response of C3A bioartificial liver in bioreactor to xenobiotic (1H NMR, PLS regression). It counts as cell-based, human. Further details: key: +: sign of the variation of its concentration (in brackets) when the amount of xenobiotic in the experiment increases; −: sign of the variation of its concentration (in brackets) when the amount of xenobiotic in the experiment increases. The source says: (§1) In the preferred embodiment described, ^1H NMR spectroscopy (proton NMR, which makes it possible to detect hydrogen atoms) was used to carry out a series of tests. These tests involved two cell lines and three potentially toxic substances, with the two lines being optionally in coculture. These cells are in one case HEPG2/C3A cells, or simply C3A, human hepatocyte cells, and in the other case Madin-Darby canine kidney (MDCK) cells. […] In particular, mention may be made of the pancreas, the heart, the testicles, parts of the brain, etc.
(§2) The medium samples are, for example, prepared using 350 μl of medium, mixed with 200 μl of 0.9 g/l saline solution composed of 90% water (H2O) and 10% heavy water (D2O), for the purpose of calibration. The 550 μl of solution is then transferred to an NMR analysis tube.
(§3) NMR is acquired at a frequency of 700 MHz by using a proton probe. A ^1D NMR spectrum is recorded using presaturation of the resonance of the water according to the following sequence: Trd-P90-t1-P90-tm-P90-Taq. Trd represents a delay of 2 seconds during which the resonance of the water is selectively irradiated, P90 is a 90° pulse of radio frequency and t1 corresponds to a delay of 3 μs. The resonance of the water is irradiated a second time during the mixing time (tm=100 ms) and an acquisition time of 1.95 s. For each sample, 128 interferograms are accumulated in order to increase the signal-to-noise ratio. These interferograms are multiplied by an exponential function corresponding to a 0.3 Hz enlarging of the line. Before obtaining a Fourier transform, the width of the interferogram is doubled by adding null points at the end of the interferogram, in order not to degrade the resolution of the spectrum. The scale in the horizontal dimension corresponds to the ^1H chemical shifts. It extends over a window of 10 ppm around the resonance of water. The scale in the vertical dimension corresponds to resonance intensity which is proportional to the number of protons present for a chemical group of each molecule of the sample. The spectra are then phased and a linear correction of the baseline is carried out, before calibration on the signal of the […] anomer of glucose at 5.23 ppm. The area between 4.67 ppm and 5 ppm around the residual signal of water is suppressed for better visibility, and the spectra are exported as a multidimensional data set.
(§4) The statistical analysis consists first of an unsupervised principal components analysis in order to locate aberrant points in the multidimensional data set. The principal components analysis makes it possible to compress the 40,000 redundant NMR present in the data set in a new orthonormal reference, with each axis representing a principal component of the variance of the data set, which is thus multidimensional. A so-called supervised multivariate statistical analysis is then carried out in order to discriminate culture conditions or groups of doses and to identify the metabolic signatures specific to the toxicological effects. This supervised analysis is principally carried out using partial least squares regression, through partial least squares discriminant analysis (PLS-DA), without however being limited to it. A PLS regression, just like a linear regression, makes it possible to identify the components of the data set (explanatory variables, X) that are quantitatively correlated with the non-explanatory variable (Y), whether the culture conditions, the cell type of the bioartificial organ, the type of treatment administered or the treatment dose. Artificial neural network structures can also be programmed to carry out this multivariate analysis.
(§5) Third, the metabolic responses of the various organs to various exposures to NH3 were studied. Three amounts of NH3 were administered (0 mM, 5 mM and 10 mM) to each type of bioartificial organ.

Another series relates to C3A cells. In words: Metabolic response of C3A cell culture in Petri dishes to APAP (1H NMR, PLS regression). The class given is cell-based, human. Further details: key: +: sign of the variation of its concentration (in brackets) when the amount of xenobiotic in the experiment increases; −: sign of the variation of its concentration (in brackets) when the amount of xenobiotic in the experiment increases. The following applies: amount of xenobiotic increases. The protocol: Fourth, the specific metabolic responses of bioartificial livers exposed to various toxins were characterized (Table 4). Several toxic substances (NH3 ([…]); DMSO (0%, 1%, 2%, 4%); APAP (0.1 mM)) were administered to bioartificial livers comprised of C3A cells. In the case of treatment with APAP, the response of the bioartificial liver was compared with that of liver cells in culture in Petri dishes. […] The result is four PLS models specific to each treatment type: NH3 on C3A bioartificial liver, DMSO on C3A bioartificial liver, APAP on C3A bioartificial liver and, finally, APAP on C3A cell culture in Petri dishes. […] This table presents for each metabolite the sign of the variation of its concentration (in brackets) when the amount of xenobiotic in the experiment increases.

The subject of a further series is C3A/MDCK coculture. The following applies: NH3 0 mM, 5 mM and 10 mM.
From the text: as §1, §2, §3, §4, §5

For series [1], the system named is Madin-Darby canine kidney (MDCK) cells. The following applies: Bioartificial kidney (MDCK cells); NH3 0 mM, 5 mM and 10 mM.
From the text: as §1, §2, §3, §4, §5

[2] abbreviates: C3A bioartificial liver, amount of xenobiotic increases (Table 4).
The mark [3] stands for this setting: Bioartificial liver (C3A cells), NH3 0 mM, 5 mM and 10 mM.

The results in this text go back to patent US9448226B2, “Method of toxicological evaluation, method of toxicological screening and associated system” (Universite Technologie De Compiegne—UTC, priority 2010, dated 2016).

SMILES strings stand for the structures.

Turning to `CC(=O)Nc1ccc(O)cc1` [APAP, N-acetyl-para-aminophenol], in the series with HEPG2/C3A cells (setting [2]), the “Variation of Acetate concentration” value was “Acetate (+)”, the “Variation of Isoleucine concentration” value was “Isoleucine (−)”, the “Variation of Pyruvate/oxaloacetate concentration” value is “oxaloacetate (−)” and the “Variation of Succinate concentration” value is listed as “Succinate (−)”. In the series on HEPG2/C3A cells (setting [2]), the “Variation of Tyrosine concentration” value is “Tyrosine (+)” and the “Variation of Unknown metabolite concentration” value is reported as “Unknown (−)”. For the same compound, in the series with C3A cells, the “Variation of Arginine concentration” value is “Arginine (−)”, the “Variation of Ethanol concentration” value is on record as “Ethanol (−)”, the “Variation of Glutamate concentration” value was “Glutamate (−)” and the “Variation of Isoleucine concentration” value is listed as “Isoleucine (−)”. In the series on C3A cells, the “Variation of Leucine concentration” value was “Leucine (−)”, the “Variation of Lysine concentration” value is given as “Lysine (−)” and the “Variation of Phenylalanine concentration” value is recorded as “Phenylalanine (−)”.
With `C[S+](C)[O-]` [DMSO, dimethyl sulfoxide], in the series with HEPG2/C3A cells (setting [2]), the “Variation of Alpha-keto-isovalerate concentration” value is “isovalerate (−)”, the “Variation of Alpha-keto-methylvalerate concentration” value is listed as “methylvalerate (−)”, the “Variation of Glucose concentration” value is recorded as “Glucose (+)” and the “Variation of Lactate concentration” value was “Lactate (−)”. Besides, in the series on HEPG2/C3A cells (setting [2]), the “Variation of Phenylalanine concentration” value is recorded as “Phenylalanine (+)” and the “Variation of Tyrosine concentration” value is given as “Tyrosine (+)”.
On to `N` [NH3, ammonia], for which, in the series with HEPG2/C3A cells (setting [3]), the “Variation of Alanine concentration” value is “+”, the “Variation of Alpha-keto-isovalerate concentration” value is recorded as “−”, the “Variation of Alpha-keto-methylvalerate concentration” value was “−” and the “Variation of Isoleucine concentration” value is on record as “+”. Further, in the series on HEPG2/C3A cells (setting [3]), the “Variation of Leucine concentration” value is “+”, the “Variation of Succinate concentration” value is “+” and the “Variation of Valine concentration” value is “+”. In the series on HEPG2/C3A cells (setting [2]), the “Variation of Alanine concentration” value is listed as “Alanine (+)”, the “Variation of Alpha-keto-isovalerate concentration” value is given as “isovalerate (−)”, the “Variation of Alpha-keto-methylvalerate concentration” value is “methylvalerate (−)” and the “Variation of Isoleucine concentration” value is “Isoleucine (+)”. In the series with HEPG2/C3A cells (setting [2]), the “Variation of Leucine concentration” value is reported as “Leucine (+)”, the “Variation of Succinate concentration” value is recorded as “Succinate (+)” and the “Variation of Valine concentration” value is reported as “Valine (+)”. Moreover, in the series on C3A/MDCK coculture, the “Variation of Alpha-hydroxyisobutyrate concentration” value is listed as “+”, the “Variation of Glutamate concentration” value is “+”, the “Variation of Glutamine concentration” value is given as “+” and the “Variation of Lysine concentration” value is “+”. In the series on C3A/MDCK coculture, the “Variation of Ornithine concentration” value is “−”, the “Variation of Succinate concentration” value was “+” and the “Variation of Valine concentration” value was “+”. In addition, in series [1], the “Variation of Glutamine concentration” value is “−”, the “Variation of Lysine concentration” value was “−”, the “Variation of Oxaloacetate concentration” value is given as “−” and the “Variation of Pyroglutamate concentration” value is “+”. In addition, in series [1], the “Variation of Pyruvate concentration” value is listed as “−” and the “Variation of Unknown metabolite concentration” value was “−”.
